Measurements taken from PubChem BioAssay (NCI).
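Interpolation was linear, between the two tested concentrations surrounding the appropriate level; five concentrations were tested over 48 hours in 96-well plates. TGI: total growth inhibition.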

Columns and labels:
Assay in all cases: DTP human tumour cell line panel, 48 h
A498 renal = tested on: A498 renal
OVCAR-4 ovarian = tested on: OVCAR-4 ovarian
COLO 205 colon = tested on: COLO 205 colon
SF-539 CNS = tested on: SF-539 CNS
DU-145 prostate = tested on: DU-145 prostate
U251 CNS = tested on: U251 CNS
BT-549 breast = tested on: BT-549 breast
SK-MEL-2 melanoma = tested on: SK-MEL-2 melanoma
HOP-92 NSCLC = tested on: HOP-92 NSCLC
UO-31 renal = tested on: UO-31 renal
HT29 colon = tested on: HT29 colon
LOX IMVI melanoma = tested on: LOX IMVI melanoma
SNB-19 CNS = tested on: SNB-19 CNS
PC-3 prostate = tested on: PC-3 prostate
MCF7 breast = tested on: MCF7 breast
KM12 colon = tested on: KM12 colon
NCI-H226 lung = tested on: NCI-H226 lung
NCI/ADR-RES ovarian = tested on: NCI/ADR-RES ovarian
IGROV1 ovarian = tested on: IGROV1 ovarian
SK-OV-3 ovarian = tested on: SK-OV-3 ovarian
SF-268 CNS = tested on: SF-268 CNS
MDA-N = tested on: MDA-N
SR leukemia = tested on: SR leukemia
UACC-62 melanoma = tested on: UACC-62 melanoma
MOLT-4 leukemia = tested on: MOLT-4 leukemia
T-47D breast = tested on: T-47D breast
EKVX NSCLC = tested on: EKVX NSCLC
SN12C renal = tested on: SN12C renal
MDA-MB-435 = tested on: MDA-MB-435
CAKI-1 renal = tested on: CAKI-1 renal
NCI-H522 lung = tested on: NCI-H522 lung
RPMI-8226 leukemia = tested on: RPMI-8226 leukemia
ACHN renal = tested on: ACHN renal
CCRF-CEM leukemia = tested on: CCRF-CEM leukemia
HCT-116 colon = tested on: HCT-116 colon
SF-295 CNS = tested on: SF-295 CNS
HOP-62 NSCLC = tested on: HOP-62 NSCLC
MALME-3M melanoma = tested on: MALME-3M melanoma
HCC-2998 colon = tested on: HCC-2998 colon
A549 NSCLC = tested on: A549 NSCLC
NCI-H460 lung = tested on: NCI-H460 lung
UACC-257 melanoma = tested on: UACC-257 melanoma
HS 578T breast = tested on: HS 578T breast
OVCAR-3 ovarian = tested on: OVCAR-3 ovarian
MDA-MB-231 breast = tested on: MDA-MB-231 breast
HCT-15 colon = tested on: HCT-15 colon
SK-MEL-28 melanoma = tested on: SK-MEL-28 melanoma
M14 melanoma = tested on: M14 melanoma
SNB-75 CNS = tested on: SNB-75 CNS
SK-MEL-5 melanoma = tested on: SK-MEL-5 melanoma
NCI-H23 lung = tested on: NCI-H23 lung
OVCAR-8 ovarian = tested on: OVCAR-8 ovarian
SW-620 colon = tested on: SW-620 colon
TK-10 renal = tested on: TK-10 renal
786-0 renal = tested on: 786-0 renal
HL-60(TB) leukemia = tested on: HL-60(TB) leukemia
OVCAR-5 ovarian = tested on: OVCAR-5 ovarian
RXF 393 renal = tested on: RXF 393 renal
K-562 leukemia = tested on: K-562 leukemia

For `Cc1ccc(/C=N/Nc2ccccn2)s1`, the TGI (A498 renal) was over 100 µM, the TGI (OVCAR-4 ovarian) was over 100 µM and the TGI (COLO 205 colon) was over 100 µM. The TGI (SF-539 CNS) was over 100 µM, the TGI (DU-145 prostate) was over 100 µM and the TGI (U251 CNS) was over 100 µM. For the same compound, the TGI (BT-549 breast) was over 100 µM, the TGI (SK-MEL-2 melanoma) was over 100 µM and the TGI (HOP-92 NSCLC) was over 100 µM. For the same compound, the TGI (UO-31 renal) was over 100 µM, the TGI (HT29 colon) was over 100 µM and the TGI (LOX IMVI melanoma) was over 100 µM. For the same compound, the TGI (SNB-19 CNS) was over 100 µM, the TGI (PC-3 prostate) was over 100 µM and the TGI (MCF7 breast) was over 100 µM. It also gave a TGI (KM12 colon) of over 100 µM, a TGI (NCI-H226 lung) of over 100 µM and a TGI (NCI/ADR-RES ovarian) of over 100 µM. For the same compound, the TGI (IGROV1 ovarian) was over 100 µM, the TGI (SK-OV-3 ovarian) was over 100 µM and the TGI (SF-268 CNS) was over 100 µM. The TGI (MDA-N) was over 100 µM, the TGI (SR leukemia) was over 100 µM and the TGI (UACC-62 melanoma) was over 100 µM. The TGI (MOLT-4 leukemia) was over 100 µM, the TGI (T-47D breast) was over 100 µM and the TGI (EKVX NSCLC) was over 100 µM. The TGI (SN12C renal) was over 100 µM, the TGI (MDA-MB-435) was over 100 µM and the TGI (CAKI-1 renal) was over 100 µM. For the same compound, the TGI (NCI-H522 lung) was over 100 µM, the TGI (RPMI-8226 leukemia) was over 100 µM and the TGI (ACHN renal) was over 100 µM. For the same compound, the TGI (CCRF-CEM leukemia) was over 100 µM, the TGI (HCT-116 colon) was over 100 µM and the TGI (SF-295 CNS) was over 100 µM. It also gave a TGI (HOP-62 NSCLC) of over 100 µM, a TGI (MALME-3M melanoma) of over 100 µM and a TGI (HCC-2998 colon) of over 100 µM. The TGI (A549 NSCLC) was over 100 µM, the TGI (NCI-H460 lung) was over 100 µM and the TGI (UACC-257 melanoma) was over 100 µM. It also gave a TGI (HS 578T breast) of over 100 µM, a TGI (OVCAR-3 ovarian) of over 100 µM and a TGI (MDA-MB-231 breast) of over 100 µM. The TGI (HCT-15 colon) was over 100 µM, the TGI (SK-MEL-28 melanoma) was over 100 µM and the TGI (M14 melanoma) was over 100 µM. It also gave a TGI (SNB-75 CNS) of over 100 µM, a TGI (SK-MEL-5 melanoma) of over 100 µM and a TGI (NCI-H23 lung) of over 100 µM. For the same compound, the TGI (OVCAR-8 ovarian) was over 100 µM, the TGI (SW-620 colon) was over 100 µM and the TGI (TK-10 renal) was over 31.6 µM. The TGI (786-0 renal) was over 100 µM, the TGI (HL-60(TB) leukemia) was over 100 µM and the TGI (OVCAR-5 ovarian) was over 100 µM. For the same compound, the TGI (RXF 393 renal) was over 100 µM.

`CCC/C=C/C=C/C(=O)OC1C(C)C2(O)C3C=C(C)C(=O)C3CC(COC(C)=O)=CC2C2C(C)(C)C12OC(=O)C(C)C` (stereo not given) was tested, and the TGI (A498 renal) was 44.9 µM, the TGI (OVCAR-4 ovarian) was 57.6 µM and the TGI (COLO 205 colon) was 9.18 µM. The TGI (SF-539 CNS) was 25 µM, the TGI (DU-145 prostate) was over 100 µM and the TGI (BT-549 breast) was 35.1 µM. The TGI (SK-MEL-2 melanoma) was 35.2 µM, the TGI (HOP-92 NSCLC) was 27.2 µM and the TGI (UO-31 renal) was 29.4 µM. The TGI (HT29 colon) was 25 µM, the TGI (LOX IMVI melanoma) was 34.8 µM and the TGI (SNB-19 CNS) was 52.6 µM. The TGI (PC-3 prostate) was 27.3 µM, the TGI (MCF7 breast) was 32 µM and the TGI (KM12 colon) was 32 µM. The TGI (NCI-H226 lung) was 42.1 µM, the TGI (NCI/ADR-RES ovarian) was 47.3 µM and the TGI (IGROV1 ovarian) was 33.1 µM. It also gave a TGI (SK-OV-3 ovarian) of over 100 µM, a TGI (SF-268 CNS) of 28.4 µM and a TGI (K-562 leukemia) of over 68.6 µM. The TGI (MDA-N) was 20.1 µM, the TGI (SR leukemia) was 35.8 µM and the TGI (UACC-62 melanoma) was 16.3 µM. For the same compound, the TGI (MOLT-4 leukemia) was 16.2 µM, the TGI (T-47D breast) was 35.4 µM and the TGI (EKVX NSCLC) was 42.5 µM. For the same compound, the TGI (SN12C renal) was 23.5 µM, the TGI (MDA-MB-435) was 18.3 µM and the TGI (CAKI-1 renal) was 33.9 µM. It also gave a TGI (NCI-H522 lung) of 26.8 µM, a TGI (RPMI-8226 leukemia) of 52.5 µM and a TGI (ACHN renal) of 39.3 µM. It also gave a TGI (CCRF-CEM leukemia) of 19.1 µM, a TGI (HCT-116 colon) of 26.8 µM and a TGI (SF-295 CNS) of 22.1 µM. The TGI (HOP-62 NSCLC) was 0.0586 µM, the TGI (MALME-3M melanoma) was 26.5 µM and the TGI (HCC-2998 colon) was 14.7 µM. The TGI (A549 NSCLC) was over 100 µM, the TGI (NCI-H460 lung) was over 83.7 µM and the TGI (UACC-257 melanoma) was 31.8 µM. The TGI (HS 578T breast) was 55.4 µM, the TGI (OVCAR-3 ovarian) was 32.8 µM and the TGI (MDA-MB-231 breast) was 20.2 µM. The TGI (SK-MEL-28 melanoma) was 26.1 µM, the TGI (M14 melanoma) was 27.7 µM and the TGI (SNB-75 CNS) was 36.1 µM. The TGI (SK-MEL-5 melanoma) was 19.2 µM, the TGI (NCI-H23 lung) was 26.9 µM and the TGI (OVCAR-8 ovarian) was 55.8 µM. It also gave a TGI (SW-620 colon) of 20.4 µM, a TGI (TK-10 renal) of 47.1 µM and a TGI (786-0 renal) of 23.1 µM. The TGI (HL-60(TB) leukemia) was over 48.3 µM, the TGI (OVCAR-5 ovarian) was 47.9 µM and the TGI (RXF 393 renal) was 33.6 µM.
